Measurements from article PMC7382964 (Biochemical pharmacology, 2020).
Each block holds one molecule with its values, some of them ahead of it.

How the values were obtained:
[1] = biological target: hA3AR (Homo sapiens, UniProt P0DMS8); assay: βarr2 recruitment bioassay; type: cell-based
Target sequence in this assay (P32121 whole entry partner, one chain of several): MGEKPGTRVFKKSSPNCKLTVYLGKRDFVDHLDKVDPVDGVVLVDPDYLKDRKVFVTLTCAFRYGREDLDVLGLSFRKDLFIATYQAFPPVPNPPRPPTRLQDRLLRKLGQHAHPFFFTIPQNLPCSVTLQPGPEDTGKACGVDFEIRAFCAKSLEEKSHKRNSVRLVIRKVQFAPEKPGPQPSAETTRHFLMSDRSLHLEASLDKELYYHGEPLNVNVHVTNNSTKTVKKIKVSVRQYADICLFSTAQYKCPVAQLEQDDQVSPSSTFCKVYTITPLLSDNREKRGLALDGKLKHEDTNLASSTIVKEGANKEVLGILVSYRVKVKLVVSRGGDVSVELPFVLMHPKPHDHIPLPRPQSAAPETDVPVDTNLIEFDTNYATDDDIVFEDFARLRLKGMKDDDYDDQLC

[2] = biological target: T1, hA3AR (Homo sapiens, UniProt P0DMS8); assay: miniGαi recruitment bioassay; type: cell-based
T1 sequence (P0DMS8 1-318): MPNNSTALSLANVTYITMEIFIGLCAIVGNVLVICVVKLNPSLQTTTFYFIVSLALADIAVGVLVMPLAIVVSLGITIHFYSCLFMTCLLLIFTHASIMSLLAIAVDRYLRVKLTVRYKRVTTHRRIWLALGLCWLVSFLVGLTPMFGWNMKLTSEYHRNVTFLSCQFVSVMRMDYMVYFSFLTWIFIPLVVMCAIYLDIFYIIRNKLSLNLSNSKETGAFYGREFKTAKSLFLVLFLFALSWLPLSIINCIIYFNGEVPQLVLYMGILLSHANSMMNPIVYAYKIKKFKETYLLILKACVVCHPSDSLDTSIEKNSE

[3] = biological target: T2, cannabinoid receptor CB1 (Homo sapiens, UniProt P21554); assay: βarr2 recruitment assay with CB1 cannabinoid receptor; type: cell-based; conditions: 5 μM
T2 sequence (P21554 whole entry): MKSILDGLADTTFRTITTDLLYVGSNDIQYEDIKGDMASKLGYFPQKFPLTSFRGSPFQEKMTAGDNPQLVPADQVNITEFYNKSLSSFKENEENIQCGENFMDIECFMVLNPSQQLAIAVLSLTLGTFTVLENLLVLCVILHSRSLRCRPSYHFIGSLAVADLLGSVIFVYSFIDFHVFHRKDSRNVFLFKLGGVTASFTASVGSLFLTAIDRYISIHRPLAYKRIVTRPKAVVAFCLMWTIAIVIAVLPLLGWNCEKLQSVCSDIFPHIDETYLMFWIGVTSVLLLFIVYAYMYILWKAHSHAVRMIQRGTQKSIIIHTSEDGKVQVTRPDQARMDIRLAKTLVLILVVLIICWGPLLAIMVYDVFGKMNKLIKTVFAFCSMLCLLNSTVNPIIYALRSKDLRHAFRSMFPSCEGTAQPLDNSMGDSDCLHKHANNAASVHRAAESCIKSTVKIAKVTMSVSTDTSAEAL

[4] = biological target: T2, cannabinoid receptor CB1; assay: miniGαi coupling assay with CB1 cannabinoid receptor; type: cell-based; conditions: 5 μM
[5] = tested on: A3AR; conditions: Gao et al.; cited from earlier work
[6] = tested on: A3AR; conditions: Gao et al.; cited from earlier work; remark: listed apart in the source
[7] = tested on: A3AR; conditions: cited from earlier work
[8] = 90 min read-out, AUC, normalized to NECA
[9] = addition of 2-chloro substituent

Structure (SMILES): OC[C@H]1O[C@@H](n2cnc3c(NCc4ccco4)ncnc32)[C@H](O)[C@@H]1O [compound 14]
EC50, βarr2 recruitment [1, 8]: micromolar range
EC50, miniGαi recruitment [2, 8]: micromolar range

Structure (SMILES): OCC1OC(n2cnc3c(NC4CCCCC4c4ccccc4)ncnc32)C(O)C1O (stereo not shown) [compound 4]
receptor activation signal, βarr2 bioassay [1]: no clear activation signal
receptor activation signal, miniGαi bioassay [2]: no clear activation signal

Structure (SMILES): CNC(=O)[C@H]1O[C@@H](n2cnc3c(NCc4cccc(I)c4)nc(Cl)nc32)[C@H](O)[C@@H]1O [2-Cl-IB-MECA, 2-chloro-N^6-(3-iodobenzyl)-5′-N-methylcar-boxamidoadenosine]
agonist class in PathHunter assay for βarr2 recruitment [5]: full agonist
agonist class in calcium mobilization assay [6]: partial agonist

Structure (SMILES): OC[C@H]1O[C@@H](n2cnc3c(NCC(c4ccccc4)c4ccccc4)ncnc32)[C@H](O)[C@@H]1O [compound 19]
functional class in the cAMP pathway ([7]; Tchilibon et al.): antagonist

Structure (SMILES): OCC1OC(n2cnc3c(NC4CC4c4ccccc4)ncnc32)C(O)C1O (stereo not shown) [compound 2]
fold reduction in potency versus compound 1, βarr2 ([1]; inversion to 1R,2S orientation): 40 fold
fold reduction in potency versus compound 1, miniGαi ([2]; inversion to 1R,2S orientation): ~100 fold

Further lines, results first:

EC50, βarr2 recruitment [1, 8]: micromolar range
EC50, miniGαi recruitment [2, 8]: micromolar range
Structure (SMILES): OCC1OC(n2cnc3c(NC4CCc5ccccc54)ncnc32)C(O)C1O (stereo not shown) [compound 17]

fold increased potency versus compound 8, βarr2 [1, 9]: approximately five
fold increased potency versus compound 8, miniGαi [2, 9]: approximately five
Structure (SMILES): CC(Cc1ccccc1)Nc1nc(Cl)nc2c1ncn2C1OC(CO)C(O)C1O (stereo not shown) [compound 9]

EC50, βarr2 recruitment [1, 8]: micromolar range
EC50, miniGαi recruitment [2, 8]: micromolar range
Structure (SMILES): OCC1OC(n2cnc3c(NCc4cccs4)ncnc32)C(O)C1O (stereo not shown) [compound 15]

signal in βarr2 recruitment assay with CB1-LgBiT [3]: unable to generate a signal
signal in miniGαi coupling assay with CB1-LgBiT [4]: unable to generate a signal
Structure (SMILES): OC[C@H]1O[C@@H](n2cnc3c(N[C@H]4C[C@@H]4c4ccccc4)ncnc32)[C@H](O)[C@@H]1O [compound 1, N^6-((1S,2R)-2-phenyl-1-cyclopropyl)-adenosine]

receptor activation signal, βarr2 bioassay [1]: could not be measured
receptor activation signal, miniGαi bioassay [2]: could not be measured
Structure (SMILES): CC(C)C(Nc1ncnc2c1ncn2C1OC(CO)C(O)C1O)C(C)C (stereo not shown) [compound 12]

EC50 ([1]; read-out: EC50, βarr2 recruitment, 90 min read-out, AUC, normalized to NECA): 669 nM
EC50 ([2]; read-out: EC50, miniGαi recruitment, 90 min read-out, AUC, normalized to NECA): 433 nM
Structure (SMILES): CC(C)Nc1ncnc2c1ncn2[C@@H]1O[C@H](CO)[C@H](O)C1O (stereo partly shown) [compound 10]

receptor activation signal, βarr2 bioassay [1]: same observation
receptor activation signal, miniGαi bioassay [2]: same observation
Structure (SMILES): OCC1OC(n2cnc3c(NC(C4CC4)C4CC4)ncnc32)C(O)C1O (stereo not shown) [compound 13]
